Source: PubChem BioAssay (NCI)
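These data come from cells grown in 96-well plates and exposed to compound for 48 hours at five concentrations. TGI is the concentration that stops growth completely.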

Columns and labels:
Assay in all cases: NCI tumour cell line growth inhibition, 48 h
[1] = system: SNB-78 CNS
[2] = system: DMS 273 small cell lung
[3] = system: LXFL 529 NSCLC
[4] = system: DLD-1 colon
[5] = system: HOP-18 NSCLC
[6] = system: P388 leukemia
[7] = system: XF 498 CNS
[8] = system: SN12K1 renal
[9] = system: P388/ADR leukemia

## CCCSc1nc(COC(=O)NC)c(COC(=O)NC)n1C
[1]
  TGI: > 100 µM
[2]
  TGI: > 100 µM
[3]
  TGI: > 100 µM
[4]
  TGI: > 100 µM
[5]
  TGI: > 100 µM
[6]
  TGI: 54.8 µM
[7]
  TGI: > 100 µM
[8]
  TGI: > 100 µM
[9]
  TGI: 61.8 µM
